Experimental data reported in US12527753B2, “Cysteamine for the treatment, mitigation and prevention of coronaviral, e.g., SARS-CoV-2, infections” (The Regents of the University of Michigan, priority 2020, dated 2026).
Counter-ions that a name gives are not always drawn. Like-named read-outs stand apart in the source and are kept apart here.

How the values were obtained:
Test in all cases: Virus pre-incubation, plaque formation in TMPRSS cells
Assay type in all cases: cell-based
[1] = test system: SARS-CoV-2 Delta variant; details: 10 mM; for inhibition at 10000 µM: read-out: inhibition / inactivation
[2] = test system: SARS-CoV-2 variant beta; details: Severe acute respiratory syndrome coronavirus 2, 2 h; 5 mM, 120 min incubation
[3] = test system: SARS-CoV-2 variant alpha; details: Severe acute respiratory syndrome coronavirus 2, 2 h; 5 mM, 120 min incubation
[4] = test system: SARS-CoV-2 variant gamma; details: Severe acute respiratory syndrome coronavirus 2, 2 h; 5 mM, 120 min incubation

Row | Molecule | inhibition / inactivation ([1]; 15 min incubation, sustained through 90 minutes) | inhibition / inactivation ([1]; 120 min incubation) | inhibition at 10000 µM ([1]; Severe acute respiratory syndrome coronavirus 2, 2 h, 120 min incubation) | inhibition at 10000 µM ([1]; Severe acute respiratory syndrome coronavirus 2, 15 min incubation, sustained through 90 minutes) | inhibition at 5000 µM [2] | inhibition at 5000 µM [3] | inhibition at 5000 µM [4]
1 | 2-aminoethanethiol [cysteamine] | 85% | 100% | – | – | – | – | –
2 | NCCS [cysteamine HCl] | – | – | 100% | 85% | 85 to 95% | 85 to 95% | 85 to 95%
